Measurements published in patent US8076338B2, “Kinase modulators and methods of use” (Exelixis, Inc., priority 2004, dated 2011).

What was measured:
[1] = molecular target: AktK (Homo sapiens, UniProt P31749); test: Luciferase-coupled chemiluminescence kinase assay (ATP consumption); assay type: biochemical; conditions: Table 1; class symbols per key; read-out: AKT-1 IC50
Outline: (§1)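 Enzyme at 2.5-5 nM was preincubated 30 min at room temperature with compound in Tris pH 7.5, MgCl2, TX-100, DTT, then reacted with ATP for 3 h at ambient temperature. Remaining ATP was quantified by luciferase-luciferin chemiluminescence, with consumption kept at 25-60%; […].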

[2] = molecular target: p70S6K (Homo sapiens, UniProt P23443); test: as above; assay type: biochemical; conditions: Table 1; class symbols per key
Sequence of p70S6K (P23443 whole entry): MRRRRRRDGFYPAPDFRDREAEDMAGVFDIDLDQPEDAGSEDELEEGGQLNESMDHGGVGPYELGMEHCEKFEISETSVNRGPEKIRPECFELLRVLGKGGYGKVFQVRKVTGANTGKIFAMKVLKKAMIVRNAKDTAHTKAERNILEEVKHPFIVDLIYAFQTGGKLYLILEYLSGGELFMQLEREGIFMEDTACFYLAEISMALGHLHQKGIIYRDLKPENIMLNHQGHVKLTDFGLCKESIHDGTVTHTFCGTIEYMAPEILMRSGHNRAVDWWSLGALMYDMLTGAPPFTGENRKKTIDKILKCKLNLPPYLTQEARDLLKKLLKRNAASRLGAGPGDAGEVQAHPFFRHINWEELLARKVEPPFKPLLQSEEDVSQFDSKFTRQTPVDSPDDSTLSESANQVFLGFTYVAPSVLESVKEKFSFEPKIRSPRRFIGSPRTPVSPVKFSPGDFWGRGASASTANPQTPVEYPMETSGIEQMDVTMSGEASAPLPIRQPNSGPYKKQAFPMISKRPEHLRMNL
Outline: as §1

Sequence of AktK (P31749 whole entry): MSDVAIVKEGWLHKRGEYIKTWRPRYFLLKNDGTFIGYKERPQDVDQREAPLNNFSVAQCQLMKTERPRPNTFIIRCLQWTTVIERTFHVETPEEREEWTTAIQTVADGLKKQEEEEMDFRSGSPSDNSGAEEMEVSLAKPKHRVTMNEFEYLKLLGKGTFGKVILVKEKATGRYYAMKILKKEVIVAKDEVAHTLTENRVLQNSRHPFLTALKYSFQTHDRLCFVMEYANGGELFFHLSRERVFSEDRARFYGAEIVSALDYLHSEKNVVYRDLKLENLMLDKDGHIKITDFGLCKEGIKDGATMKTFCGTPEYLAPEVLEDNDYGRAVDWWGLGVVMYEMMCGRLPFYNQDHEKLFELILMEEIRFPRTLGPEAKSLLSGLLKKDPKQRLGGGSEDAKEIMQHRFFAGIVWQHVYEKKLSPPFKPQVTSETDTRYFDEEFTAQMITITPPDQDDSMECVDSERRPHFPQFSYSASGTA

Row | Compound | IC50 [1] | IC50 [2]
1 | Cc1ccc(C(=O)O)cc1N1CCN(c2ncnc3[nH]nc(Br)c23)CC1 [Entry 180, 3-[4-(3-bromo-1H-pyrazolo[3,4-d]pyrimidin-4-yl)piperazin-1-yl]-4-methylbenzoic acid] | 100 to 1000 nM | < 100 nM
2 | Cc1c(CCCN2CCCC2)cc(Cl)cc1N1CCN(c2ncnc3[nH]nc(/C=C/C(=O)O)c23)CC1 [Entry 181, (2E)-3-(4-{4-[5-chloro-2-methyl-3-(3-pyrrolidin-1-ylpropyl)phenyl]piperazin-1-yl}-1H-pyrazolo[3,4-d]pyrimidin-3-yl)prop-2-enoic acid] | < 100 nM | < 100 nM
3 | Cc1c(CCCN2CCCC2)cc(Cl)cc1N1CCN(c2ncnc3[nH]nc(C#CCO)c23)CC1 [Entry 182, 3-(4-{4-[5-chloro-2-methyl-3-(3-pyrrolidin-1-ylpropyl)phenyl]piperazin-1-yl}-1H-pyrazolo[3,4-d]pyrimidin-3-yl)prop-2-yn-1-ol] | < 100 nM | < 100 nM
4 | Cc1ccc(Cl)cc1N1CCN(c2ncnc3[nH]nc(Br)c23)CC1=O [Entry 183, 4-(3-bromo-1H-pyrazolo[3,4-d]pyrimidin-4-yl)-1-(5-chloro-2-methylphenyl)piperazin-2-one] | ≥ 10000 nM | < 100 nM
5 | Cc1c(NCCN2CCCC2)cc(OCC(C)C)cc1N1CCN(c2ncnc3[nH]nc(Br)c23)CC1 [Entry 184, 3-[4-(3-bromo-1H-pyrazolo[3,4-d]pyrimidin-4-yl)piperazin-1-yl]-2-methyl-5-[(2-methyl-propyl)oxy]-N-(2-pyrrolidin-1-ylethyl)aniline] | < 100 nM | < 100 nM
6 | COC(=O)c1cc(Br)c(C)c(N2CCN(c3ncnc4[nH]nc(Br)c34)CC2)c1 [Entry 186, methyl 3-bromo-5-[4-(3-bromo-1H-pyrazolo[3,4-d]pyrimidin-4-yl)piperazin-1-yl]-4-methylbenzoate] | 100 to 1000 nM | < 100 nM
7 | Cc1ccc(C(=O)Nc2ccccc2)cc1N1CCN(c2ncnc3[nH]nc(Br)c23)CC1 [Entry 187, 3-[4-(3-bromo-1H-pyrazolo[3,4-d]pyrimidin-4-yl)piperazin-1-yl]-4-methyl-N-phenylbenzamide] | < 100 nM | < 100 nM
8 | CNC(=O)c1ccc(C)c(N2CCN(c3ncnc4[nH]nc(Br)c34)CC2)c1 [Entry 188, 3-[4-(3-bromo-1H-pyrazolo[3,4-d]pyrimidin-4-yl)piperazin-1-yl]-N,4-dimethylbenzamide] | 100 to 1000 nM | < 100 nM
9 | CCN(CC)CCOc1cccc(N2CCN(c3ncnc4[nH]nc(Br)c34)CC2)c1 [Entry 189, 2-({3-[4-(3-bromo-1H-pyrazolo[3,4-d]pyrimidin-4-yl)piperazin-1-yl]phenyl}oxy)-N,N-diethylethanamine] | ≥ 10000 nM | 100 to 1000 nM
10 | COC(=O)c1cc(NCCN2CCCC2)c(C)c(N2CCN(c3ncnc4[nH]nc(Br)c34)CC2)c1 [Entry 190, methyl 3-[4-(3-bromo-1H-pyrazolo[3,4-d]pyrimidin-4-yl)piperazin-1-yl]-4-methyl-5-[(2-pyrrolidin-1-ylethyl)amino]benzoate] | < 100 nM | < 100 nM
11 | Cc1c(Br)cc(C(=O)Nc2ccccc2)cc1N1CCN(c2ncnc3[nH]nc(Br)c23)CC1 [Entry 191, 3-bromo-5-[4-(3-bromo-1H-pyrazolo[3,4-d]pyrimidin-4-yl)piperazin-1-yl]-4-methyl-N-phenylbenzamide] | 100 to 1000 nM | < 100 nM
12 | CCc1n[nH]c2ncnc(N3CCN(c4cc(C(=O)Nc5ccccc5)cc(Br)c4C)CC3)c12 [Entry 192, 3-bromo-5-[4-(3-ethyl-1H-pyrazolo[3,4-d]pyrimidin-4-yl)piperazin-1-yl]-4-methyl-N-phenylbenzamide] | 100 to 1000 nM | < 100 nM
13 | Cc1c(NCCN(C)C(C)C)cc(Cl)cc1N1CCN(c2ncnc3[nH]nc(Br)c23)CC1 [Entry 193, N′-{3-[4-(3-bromo-1H-pyrazolo[3,4-d]pyrimidin-4-yl)piperazin-1-yl]-5-chloro-2-methylphenyl}-N-methyl-N-(1-methylethyl)ethane-1,2-diamine] | < 100 nM | < 100 nM
14 | Cc1c(NCCN2CCCC2)cc(C(=O)Nc2ccccc2)cc1N1CCN(c2ncnc3[nH]nc(Br)c23)CC1 [Entry 194, 3-[4-(3-bromo-1H-pyrazolo[3,4-d]pyrimidin-4-yl)piperazin-1-yl]-4-methyl-N-phenyl-5-[(2-pyrrolidin-1-ylethyl)amino]benzamide] | < 100 nM | < 100 nM
15 | Cc1c(NCCN(C)C)cc(OCC(C)C)cc1N1CCN(c2ncnc3[nH]nc(Br)c23)CC1 [Entry 195, N′-{3-[4-(3-bromo-1H-pyrazolo[3,4-d]pyrimidin-4-yl)piperazin-1-yl]-2-methyl-5-[(2-methylpropyl)ox-y]phenyl}-N,N-dimethylethane-1,2-diamine] | < 100 nM | < 100 nM
16 | Cc1ccc(C(=O)N(C)C)cc1N1CCN(c2ncnc3[nH]nc(Br)c23)CC1 [Entry 196, 3-[4-(3-bromo-1H-pyrazolo[3,4-d]pyrimidin-4-yl)piperazin-1-yl]-N,N,4-trimethylbenzamide] | 100 to 1000 nM | < 100 nM
17 | Cc1ccc(C(=O)NCC(C)C)cc1N1CCN(c2ncnc3[nH]nc(Cl)c23)CC1 [Entry 197, 3-[4-(3-chloro-1H-pyrazolo[3,4-d]pyrimidin-4-yl)piperazin-1-yl]-4-methyl-N-(2-methylpropyl)benzamide] | 1000 to 10000 nM | < 100 nM
18 | Cc1c(NCCN2CCCC2)cc(C(=O)N(C)C)cc1N1CCN(c2ncnc3[nH]nc(Br)c23)CC1 [Entry 198, 3-[4-(3-bromo-1H-pyrazolo[3,4-d]pyrimidin-4-yl)piperazin-1-yl]-N,N,4-trimethyl-5-[(2-pyrrolidin-1-ylethyl)amino]benzamide] | 100 to 1000 nM | < 100 nM
19 | Cc1ccc(C(=O)Nc2ccccc2)cc1N1CCN(c2ncnc3[nH]nc(Br)c23)CC1=O [Entry 199, 3-[4-(3-bromo-1H-pyrazolo[3,4-d]pyrimidin-4-yl)-2-oxopiperazin-1-yl]-4-methyl-N-phenylbenzamide] | 1000 to 10000 nM | < 100 nM
20 | Cc1ccc(C(=O)Nc2ccccc2)cc1N1CCN(c2ncnc3[nH]nc(Br)c23)C[C@@H]1CO [Entry 200, 3-[(2R)-4-(3-bromo-1H-pyrazolo[3,4-d]pyrimidin-4-yl)-2-(hydroxymethyl)piperazin-1-yl]-4-methyl-N-phenylbenzamide] | < 100 nM | < 100 nM
21 | Cc1c(NCCN2CCCC2)cc(C(=O)N2CCCC2)cc1N1CCN(c2ncnc3[nH]nc(Br)c23)CC1 [Entry 201, 3-[4-(3-bromo-1H-pyrazolo[3,4-d]pyrimidin-4-yl)piperazin-1-yl]-2-methyl-5-(pyrrolidin-1-ylcarbonyl)-N-(2-pyrrolidin-1-ylethyl)aniline] | 100 to 1000 nM | < 100 nM
22 | CNC(=O)c1cc(NCCN2CCCC2)c(C)c(N2CCN(c3ncnc4[nH]nc(Br)c34)CC2)c1 [Entry 202, 3-[4-(3-bromo-1H-pyrazolo[3,4-d]pyrimidin-4-yl)piperazin-1-yl]-N,4-dimethyl-5-[(2-pyrrolidin-1-ylethyl)amino]benzamide] | 100 to 1000 nM | < 100 nM
23 | Cc1c(NCCN2CCCC2)cc(C(=O)Nc2ccc(Cl)cc2)cc1N1CCN(c2ncnc3[nH]nc(Br)c23)CC1 [Entry 203, 3-[4-(3-bromo-1H-pyrazolo[3,4-d]pyrimidin-4-yl)piperazin-1-yl]-N-(4-chlorophenyl)-4-methyl-5-[(2-pyrrolidin-1-ylethyl)amino]benzamide] | < 100 nM | < 100 nM
24 | Cc1c(NCCN2CCCC2)cc(C(=O)Nc2ccccc2Cl)cc1N1CCN(c2ncnc3[nH]nc(Br)c23)CC1 [Entry 204, 3-[4-(3-bromo-1H-pyrazolo[3,4-d]pyrimidin-4-yl)piperazin-1-yl]-N-(2-chlorophenyl)-4-methyl-5-[(2-pyrrolidin-1-ylethyl)amino]benzamide] | < 100 nM | < 100 nM
25 | Cc1c(NCCN2CCCC2)cc(OCC2CC2)cc1N1CCN(c2ncnc3[nH]nc(Br)c23)CC1 [Entry 205, 3-[4-(3-bromo-1H-pyrazolo[3,4-d]pyrimidin-4-yl)piperazin-1-yl]-5-[(cyclopropylmethyl)oxy]-2-methyl-N-(2-pyrrolidin-1-ylethyl)aniline] | < 100 nM | < 100 nM
26 | Cc1c(NCCN2CCCC2)cc(OCCC(C)C)cc1N1CCN(c2ncnc3[nH]nc(Br)c23)CC1 [Entry 206, 3-[4-(3-bromo-1H-pyrazolo[3,4-d]pyrimidin-4-yl)piperazin-1-yl]-2-methyl-5-[(3-methylbutyl)oxy]-N-(2-pyrrolidin-1-ylethyl)aniline] | < 100 nM | < 100 nM
27 | CCC(CC)COc1cc(NCCN2CCCC2)c(C)c(N2CCN(c3ncnc4[nH]nc(Br)c34)CC2)c1 [Entry 207, 3-[4-(3-bromo-1H-pyrazolo[3,4-d]pyrimidin-4-yl)piperazin-1-yl]-5-[(2-ethylbutyl)oxy]-2-methyl-N-(2-pyrrolidin-1-ylethyl)aniline] | < 100 nM | < 100 nM
28 | Cc1c(NCCN2CCCC2)cc(C(=O)NC(C)C)cc1N1CCN(c2ncnc3[nH]nc(Br)c23)CC1 [Entry 209, 3-[4-(3-bromo-1H-pyrazolo[3,4-d]pyrimidin-4-yl)piperazin-1-yl]-4-methyl-N-(1-methylethyl)-5-[(2-pyrrolidin-1-ylethyl)amino]benzamide] | < 100 nM | < 100 nM
29 | Cc1c(NCCN2CCCC2)cc(C(=O)N(C)C(C)C)cc1N1CCN(c2ncnc3[nH]nc(Br)c23)CC1 [Entry 210, 3-[4-(3-bromo-1H-pyrazolo[3,4-d]pyrimidin-4-yl)piperazin-1-yl]-N,4-dimethyl-N-(1-methylethyl)-5-[(2-pyrrolidin-1-ylethyl)amino]benzamide] | 100 to 1000 nM | < 100 nM
